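Cells were grown in 96-well plates and exposed to each compound for 48 hours at five concentrations; endpoints were interpolated linearly between bracketing concentrations, or set to the highest concentration if not reached. The concentration for 50% growth inhibition is given as GI50.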 Calls of active or inactive are those of the source. No stated cut-off is given here; in the data, active = GI50 up to about 1.1 µM and inactive = higher.
Assays:
Test in all cases: NCI-60 cell line screen, 48 h
NCI-H226 = test system: NCI-H226
NCI-H23 = test system: NCI-H23
SK-OV-3 = test system: SK-OV-3
TK-10 = test system: TK-10
MDA-MB-435 = test system: MDA-MB-435
HCC 2998 = test system: HCC 2998
SF-268 = test system: SF-268
RPMI-8226 = test system: RPMI-8226
UACC-257 = test system: UACC-257
OVCAR-4 = test system: OVCAR-4
A549 = test system: A549
IGROV-1 = test system: IGROV-1
HCT-15 = test system: HCT-15
RXF 393 = test system: RXF 393
CCRF-CEM = test system: CCRF-CEM
T47D = test system: T47D
MCF7 = test system: MCF7
UACC-62 = test system: UACC-62
SK-MEL-28 = test system: SK-MEL-28
Hs-578T = test system: Hs-578T
OVCAR-3 = test system: OVCAR-3
SNB-75 = test system: SNB-75
MDA-N = test system: MDA-N
OVCAR-8 = test system: OVCAR-8
U-251 = test system: U-251
786-0 = test system: 786-0
EKVX = test system: EKVX
Malme-3M = test system: Malme-3M
HCT-116 = test system: HCT-116
UO-31 = test system: UO-31
OVCAR-5 = test system: OVCAR-5
ACHN = test system: ACHN
DU-145 = test system: DU-145
COLO 205 = test system: COLO 205
BT-549 = test system: BT-549
MDA-MB-231 = test system: MDA-MB-231
SW-620 = test system: SW-620
SN12C = test system: SN12C
SK-MEL-2 = test system: SK-MEL-2
HT-29 = test system: HT-29
MOLT-4 = test system: MOLT-4
KM12 = test system: KM12
CAKI-1 = test system: CAKI-1
SF-295 = test system: SF-295
NCI/ADR-RES = test system: NCI/ADR-RES
SNB-19 = test system: SNB-19
SK-MEL-5 = test system: SK-MEL-5
NCI-H460 = test system: NCI-H460
M14 = test system: M14
K562 = test system: K562
HOP-62 = test system: HOP-62
PC-3 = test system: PC-3
LOX IMVI = test system: LOX IMVI
A498 = test system: A498
HOP-92 = test system: HOP-92
NCI-H522 = test system: NCI-H522

Measured: GI50

NC(=O)C1N=NSC1NC(=O)c1ccc([N+](=O)[O-])cc1 (stereo not drawn)
53.8 µM: HCT-15
inactive: NCI-H226 54.8 µM | NCI-H23 38.7 µM | SK-OV-3 58.9 µM | TK-10 54.8 µM | MDA-MB-435 46.5 µM | HCC 2998 37.6 µM | SF-268 54.7 µM | RPMI-8226 26.4 µM | UACC-257 > 100 µM | OVCAR-4 43.3 µM | A549 27 µM | IGROV-1 22.4 µM | RXF 393 43.5 µM | CCRF-CEM 43.5 µM | T47D 26.3 µM | MCF7 43.5 µM | UACC-62 49.4 µM | SK-MEL-28 > 100 µM | Hs-578T 75 µM | OVCAR-3 30.4 µM | SNB-75 67.3 µM | MDA-N 67.3 µM | OVCAR-8 53.6 µM | U-251 36.6 µM | 786-0 > 100 µM | EKVX 30 µM | Malme-3M 60.3 µM | HCT-116 47.5 µM | UO-31 40.6 µM | OVCAR-5 > 100 µM | ACHN 59.4 µM | DU-145 78.5 µM | COLO 205 44.5 µM | BT-549 48.2 µM | MDA-MB-231 52.2 µM | SW-620 50.6 µM | SN12C 47.5 µM | SK-MEL-2 13.5 µM | HT-29 36.9 µM | MOLT-4 49.2 µM | KM12 49.9 µM | CAKI-1 63.5 µM | SF-295 32.2 µM | NCI/ADR-RES 36.6 µM | SNB-19 50.6 µM | SK-MEL-5 22 µM | NCI-H460 34.4 µM | M14 56.4 µM | K562 62.7 µM | HOP-62 > 100 µM | PC-3 26.6 µM

Cn1c(=O)c2c(nc(Cc3ccccc3)n2CC(=O)O)n(C)c1=O
inactive: NCI-H226 > 100 µM | NCI-H23 > 100 µM | TK-10 > 100 µM | MDA-MB-435 > 100 µM | HCC 2998 > 100 µM | SF-268 > 100 µM | UACC-257 > 100 µM | OVCAR-4 > 100 µM | A549 > 100 µM | IGROV-1 > 100 µM | RXF 393 > 100 µM | CCRF-CEM > 100 µM | T47D > 100 µM | UACC-62 > 100 µM | SK-MEL-28 > 100 µM | Hs-578T > 100 µM | OVCAR-3 > 100 µM | SNB-75 > 100 µM | MDA-N > 100 µM | OVCAR-8 > 100 µM | U-251 > 100 µM | LOX IMVI > 100 µM | 786-0 > 100 µM | EKVX > 100 µM | Malme-3M > 100 µM | HCT-116 > 100 µM | UO-31 > 100 µM | OVCAR-5 > 100 µM | A498 > 100 µM | ACHN > 100 µM | DU-145 > 100 µM | BT-549 > 100 µM | MDA-MB-231 > 100 µM | SW-620 > 100 µM | SN12C > 100 µM | HOP-92 > 100 µM | SK-MEL-2 > 100 µM | HT-29 > 100 µM | MOLT-4 > 100 µM | KM12 > 100 µM | CAKI-1 > 100 µM | SF-295 > 100 µM | NCI-H522 > 100 µM | NCI/ADR-RES > 100 µM | SNB-19 > 100 µM | SK-MEL-5 > 100 µM | NCI-H460 > 100 µM | M14 > 100 µM | HOP-62 > 100 µM | PC-3 > 100 µM
> 100 µM: HCT-15
